The numbers were not newly measured in publication PMC7530097 (Chemical communications (Cambridge, England), 2020), which cites them from elsewhere.

For series [1], the system named is AgrC. The following applies: ref [25].
The target of series [2] is Group-III agr subgroup of S. aureus (Staphylococcus aureus, UniProt O33590). Conditions: read-out: IC50 (95% CI) Group-III; β-lactamase reporter cell assay; ref [6].
Series [3] addresses Group-II agr subgroup of S. aureus (Staphylococcus aureus, UniProt O33587). The following applies: read-out: IC50 (95% CI) Group-II; β-lactamase reporter cell assay; ref [6].

Solonamide B: in series [1], the “inhibition of AgrC” value was “competitively inhibit AgrC”. Consider AIP-I, for which the IC50 (usually the point on the concentration scale where inhibition reaches its midpoint) in series [2] was 0.003 µM; in series [3], 0.025 µM.
